Source: BindingDB's records for patent US20240158413 (Soter Biopharma, 2024)

Molecular target: T1, Gonadotropin-releasing hormone receptor (Homo sapiens, UniProt P30968)
T1 sequence (P30968 whole entry): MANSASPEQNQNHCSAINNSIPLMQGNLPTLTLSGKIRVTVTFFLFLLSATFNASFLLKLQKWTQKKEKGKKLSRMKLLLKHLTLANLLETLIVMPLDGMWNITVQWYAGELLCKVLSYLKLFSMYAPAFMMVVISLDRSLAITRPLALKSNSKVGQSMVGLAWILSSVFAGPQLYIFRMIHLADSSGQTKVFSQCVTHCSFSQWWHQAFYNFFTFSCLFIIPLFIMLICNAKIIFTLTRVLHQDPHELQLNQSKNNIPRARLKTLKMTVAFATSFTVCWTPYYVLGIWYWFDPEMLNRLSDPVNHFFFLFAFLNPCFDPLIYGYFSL
Assay: Inhibitory Activity Assay
Protocol: GnRH/HEK293 (human embryonic kidney cell 293) cultured cells in the logarithmic growth phase were washed with DPBS (Dulbecco's phosphate buffered saline) buffer, and an appropriate amount of 0.05% EDTA (ethylenediaminetetraacetic acid)-trypsin was added. The cells were placed in a carbon dioxide incubator at 37° C. for digestion for 1-2 minutes, and then removed from the incubator. A medium was added to the cells to terminate the digestion. Cells were dispersed by repeated pipetting and harvested by centrifugation. The cells were seeded into a 384-well Poly-Lysine-Coated. Cell Plate at a density of 20,000 cells per well. […] The fluorescence signal was read. Then 10 μL of the reference compound as an agonist was added, and the fluorescent signal was read. […] The fluorescent signal was read. Then 10 μL of agonist with a concentration of 6×EC50 was added to the cell plate and the fluorescent signal was read.IC50 of the compound to inhibit the calcium flow of gonadotropin-releasing hormone receptor, i.e., the drug concentration when the Ca2+ flow was inhibited by half in the cells stably expressing the GnRH receptor, was calculated. The IC50 of the drug was calculated by GraphPad Prism 5.0 software.

| IC50 [nM] | Compound |
| --- | --- |
| 3.2 | Cc1c(F)ccc2c1COc1cc(C3C(=O)Nc4csc(C(=O)O)c4C3=O)c(F)cc1OCCCO2 (configuration not stated) [US20240158413, Compound 1] |
| 9.2 | O=C(O)c1scc2c1C(=O)C(c1cc3c(cc1F)OCC1(CC1)COc1ccc(F)c(F)c1CO3)C(=O)N2 (configuration not stated) [US20240158413, Compound 2] |
